Values of other authors, collected in patent EP4631497A1, “LIPOSOMAL COMPOSITION FOR TOPICAL ADMINISTRATION” (priority 2024, dated 2025).
Read-outs that look alike come from different tables or passages of the source.

SMILES | Wasserlöslichkeit (bei 25°C) | Wasserlöslichkeit (water) [mg/mL]
O=C1c2c(O)cc(O)cc2O[C@H](c2ccc(O)c(O)c2)[C@H]1O [Taxifolin] | < 1 mg/mL | –
Oc1ccc(C=Cc2cc(O)cc(O)c2)cc1 [Resveratrol] | < 0,1 mg/ml | –
O=C(CCc1ccc(O)cc1)c1c(O)cc(O)cc1O [Phloretin] | < 0,1 mg/ml | –
C[C@@H]1O[C@@H](O[C@H]2[C@H](Oc3cc(O)c4c(c3)O[C@H](c3ccc(O)cc3)CC4=O)O[C@H](CO)[C@@H](O)[C@@H]2O)[C@H](O)[C@H](O)[C@H]1O [Naringin] | – | < 1
